# Assays:
# [1] = test system: immobilized Vn binding to S. epidermidis strain BD5703; test: Inhibition test: binding of 3H-labeled bacteria to Vn coated wells; format: cell-based, Staphylococcus epidermidis; conditions: for Effect on BD5703 binding of immobilized Vn (in words): component added at the same time as bacteria
# Protocol: (§1) ^3H-labeled bacteria were used for these tests. In brief, half a milliliter of an overnight cultured bacteria in TH broth was diluted in 5 ml TH broth containing 50 μCi of [methyl-^3H]thymidine (Amersham Plc., Buckinghamshire, UJK) and cultured for 5 hours at 37° C. on a gyrator shaker with vigorous agitation.
# In another experiment, 50 μl bacteria (2×10^7cfu/ml) were mixed with the same volume of four mono-carbohydrates (0.1M D-fucose, 0.1M D-galactose, 0.1M D-glucose and 0.1M D-mannose), heparin (2 mg/ml), hyaluronic acid (2 mg/ml) or Vn (20 μg/ml). These mixtures with bacteria were incubated for 1 hour at 37° C. Heparin sodium salt and hyaluronic acid were purchased from Fluka Chemie AG, Buchs, Switzerland)
# (§2) Finally, all wells were washed by PBS 5 times, individual wells were removed and immersed in 2.5 ml scintillation fluid (BDH chemicals, Pool, UK) and the radioactivity was counted in a liquid scintillation counter (Beckman Instruments, Fullerton, Calif., USA). Quantitation of relative binding percentage was achieved by the radioactivity from experimental groups in relation to the radioactivity from non-treated group.
# [2] = test system: immobilized Vn binding to S. epidermidis strain BD5703; test: as above; format: cell-based, Staphylococcus epidermidis
# [3] = test system: 21 kDa protein of BD5703; test: Autoradiograph inhibition test: labeled Vn binding to blotted surface proteins; set-up: species or system Staphylococcus epidermidis; conditions: competing proteins 10 μg/ml; heparin, hyaluronic acid 1 mg/ml; autoradiography
# Protocol: (§3) SDS-PAGE was performed on mini-Protean II cell (Bio-Rad, Richmond, Calif.) as previously described (16). The bacterial surface structures were extracted by 1M lithium chloride (pH 5) with protease inhibitor (Boehringer Mannheim, Mannheim, Germany) at 37° C. for 2 hours with end to end rotation. Extract was subjected to homogenous gel (12%) or gradient gel (4-15%) electrophoresis. The running and transfer conditions were as previously described (17).
# (§4) The PDVF membranes (Micron Separations INC., Westborough, USA) were saturated with incubation in blocking buffers I and II (buffer I containing 0.6% ethanolamine, 0.9% glycine, 1% polyvinylpyrrolidone and 25% methanol pH 9.6; buffer II containing 0.6% ethanolamine, 0.9% glycine, 0.05% gelatin hydrolysate and 0.125% Tween 20 pH 9.6) for 15 min respectively (18). Saturated membranes were rinsed three times in PBST (PBS with 1% Tween 20). Then, the membranes were incubated with ^125I-labeled Vn (0.4 μg/ml) in PBST or in PBST supplemented with 1.05 M sodium chloride (final sodium chloride concentration 1.2M) overnight at 20° C. The membranes were washed and dried, then examined by autoradiography with X-Omat AR film (Eastman Kodak) after 3 days storage at −70° C.
# (§5) For inhibition tests, the membrane with retained bacterial surface molecules was cut to individual strips, and then incubated with labeled Vn (0.4 μg/ml) in PBST mixed with different unlabeled competing molecules, including Vn (10 μg/ml), fibronectin (10 μg/ml), fibrinogen (10μg/ml), thrombospondin ([…]), plasminogen (10 μg/ml), human immunoglobulins (10 μg/ml), hemopexin (10 μg/ml), heparin (1 mg/ml). In a separate experiment, the strips were preincubated with heparin (1 mg/ml) and hyaluronic acid (1 mg/ml) for 1 hour at 20° C. prior to adding labeled Vn.
# [4] = test system: 52 kDa protein of BD5703; test: as above; set-up: species or system Staphylococcus epidermidis; conditions: competing proteins 10 μg/ml; heparin, hyaluronic acid 1 mg/ml; autoradiography
# Protocol: as §3, §4, §5
# [5] = test system: 16 kDa protein of BD5703; test: as above; set-up: species or system Staphylococcus epidermidis; conditions: competing proteins 10 μg/ml; heparin, hyaluronic acid 1 mg/ml; autoradiography
# Protocol: as §3, §4, §5
# [6] = test system: 38 kDa protein of BD5703; test: as above; set-up: species or system Staphylococcus epidermidis; conditions: competing proteins 10 μg/ml; heparin, hyaluronic acid 1 mg/ml; autoradiography
# Protocol: as §3, §4, §5
# [7] = test system: immobilized S. epidermidis strain BD5703; test: Binding of soluble 125I-labeled Vn to cells immobilized on ELISA plate wells; set-up: species or system Staphylococcus epidermidis; conditions: two-fold diluted 125I-Vn, maximally 5 μg/ml; FIG. 1
# Protocol: (§6) Fifty micrograms of Vn was labeled with Na ^125I (Amersham Plc., Buckinghamshire, UK) using the modified chloramine-T method (specificity, 1×10^6 cpm/μg), and used in a minor modified soluble binding test with final reaction volume of 150 μl in PBS (15). During binding experiments, radiolabeled protein were diluted to approx. 0.025 μg (25,000cpm) and incubated with bacteria (10^9 cells per test tube). In an alternative method, cells of BD5703 were immobilized on ELISA plates (Costar Co., Cambridge, USA) by incubating 100 μl of bacterial suspension (2×10^7 cells in PBS) for 30 min at 37° C. Non-attached bacteria were removed by 3 washes with PBS. The remaining sites on the plastic were blocked by 2%, a bovine serum albumin in PBS (BSA-PBS) for 1 hour at 37° C. The wells were washed with PBS, and two-fold diluted ^125I-labeled Vn in 1% BSA-PBS (maximally 5 μg/ml) was added. Wells coated with 1% BSA served as background. After incubation at 37° C. for 45 min and washes with PBS, individual wells were removed and the radioactivity was measured in a gamma counter (LKB-Wallac, Turku, Finland).
# [8] = test system: S. aureus strain V8; test: Bacterial binding of soluble 125I-labeled Vn; set-up: species or system Staphylococcus aureus; conditions: reference strain V8
# Protocol: as §6
# [9] = test system: BD5703 surface proteins; test: Autoradiograph inhibition test: labeled Vn binding to blotted surface proteins; set-up: species or system Staphylococcus epidermidis; conditions: unlabeled Vn 10 μg/ml; autoradiography
# Protocol: as §3, §4, §5
# [10] = test system: S. epidermidis strain BD5703; test: Bacterial binding of soluble 125I-labeled Vn; set-up: species or system Staphylococcus epidermidis; conditions: less than 5% is considered as negative binding
# Protocol: as §6
# [11] = test system: immobilized Vn; test: Trypsin treatment of Vn-coated wells, binding assay with 3H labeled bacteria; format: cell-based; conditions: trypsin 2 μg/well, 37° C. for 2 hours
# Protocol: The wells pre-adsorbed with Vn were trypsinized at a concentration of 2 μg/well in PBS with 1 mM CaCl2 (37° C. for 2 hours) following an additional incubation with soybean trypsin inhibitor (4 μg/well) at 37° C. for 30 min in same buffer (15). The wells were then blocked by BSA and subjected to binding assay with ^3H labeled bacteria.
# [12] = test system: S. aureus V8; test: Proteolytic treatment of bacterial cells, binding of immobilized Vn; format: cell-based, Staphylococcus aureus; conditions: V8 cells treated with protease; non-treated control = 100
# Protocol: as §1
# (§7) 3H-labeled bacteria cells (5×10^8) were suspended in 1 ml PBS heated at 100° C. for 30 min and rapidly cooled. The same amount of bacteria was treated by pronase E, protease K and trypsin (Sigma Chemical Co., St. Louis, USA) as previously described (15). After washes in PBS, 100 μl (1×10^7 cells) treated bacterial suspension were added into the Vn coated wells.
# as §2
# [13] = test system: S. epidermidis BD5703; test: as above; format: cell-based, Staphylococcus epidermidis; conditions: BD5703 cells treated with protease; non-treated control = 100
# Protocol: as §1, §7, §2
# [14] = inhibitor 1 mg/ml, added at the same time as bacteria
Compound,Effect on BD5703 binding of immobilized Vn (in words) [1],Inhibition of labeled Vn binding to the 52 kDa band [4],Inhibition of labeled Vn binding to the 16 kDa band [5],Inhibition of labeled Vn binding to the 38 kDa band [6],other results
C[C@@H](O)[C@H](O)[C@H](O)[C@@H](O)C=O [D-fucose],not by carbohydrates,–,–,–,–
Heparin sodium salt [Heparin 1],reduced significantly,almost erase,almost erase,almost erase,"Inhibitory ability compared to hyaluronic acid ([1]; added at the same time as bacteria): more than 2 fold; Relative binding percentage [1, 14]: 18%; Effect on BD5703 binding of immobilized Vn (in words) ([2]; component preincubated with Vn coated wells): increased the binding; Relative binding percentage ([2]; inhibitor 1 mg/ml, preincubated with Vn coated wells for 2 hours, then bacteria added): 135%; Inhibition of labeled Vn binding to the 21 kDa band [3]: not 21 kDa"
fibronectin,–,slightly blocked,slightly blocked,slightly blocked,–
"Soluble Vn: human vitronectin, purified; glycoprotein; also used 125I-labeled",–,–,–,–,"Binding of 125I-Vn to immobilized cells [7]: dose-related manner; Relative binding percentage ([1]; inhibitor 10 μg/ml, added at the same time as bacteria, control without inhibitor = 100): 40%; Inhibition of binding of immobilized Vn ([1]; soluble Vn added with bacteria): about 60%; Level of binding of radioactively labeled Vn in solution [8]: 14.2%; Inhibition of binding of labeled Vn to BD5703 surface proteins [9]: could be inhibited; Level of binding of radioactively labeled Vn in solution [10]: more than 5%"
"hemopexin: human hemopexin, purified",–,slightly blocked,slightly blocked,slightly blocked,–
O=C[C@H](O)[C@@H](O)[C@@H](O)[C@H](O)CO [D-galactose],not by carbohydrates,–,–,–,–
plasminogen: human plasminogen from Sigma,–,slightly blocked,slightly blocked,slightly blocked,–
thrombospondin: human thrombospondin,–,slightly blocked,slightly blocked,slightly blocked,–
fibrinogen,–,slightly blocked,slightly blocked,slightly blocked,–
O=C[C@@H](O)[C@@H](O)[C@H](O)[C@H](O)CO [D-mannose],not by carbohydrates,–,–,–,–
O=C[C@H](O)[C@@H](O)[C@H](O)[C@H](O)CO [D-glucose],not by carbohydrates,–,–,–,–
Trypsin,–,–,–,–,Bacterial binding after trypsin treatment of immobilized Vn [11]: no binding was obtained; Relative percentage binding of immobilized Vn [12]: 70%; Relative percentage binding of immobilized Vn [13]: 67%
hyaluronic acid,reduced significantly,inhibited,–,inhibited,"Relative binding percentage [1, 14]: 41%"
